pIC50: −log10 of the molar value. Like-named read-outs stand apart in the source and are kept apart here.

In the assay the target is T1, METTL3/14 (Homo sapiens, UniProt Q86U44).
T1 construct: The enzyme used was full-length his-tagged METTL3; His; made in house
Nature of the assay: METTL3/14 methyltransferase assay (METTL3_14 RFMS, RapidFire mass spectrometry).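 Further: recombinant His-tagged METTL3 with FLAG-tagged METTL14 from baculovirus, SAH product quantified by mass spectrometry against isotope-labelled internal standards, 60 min at room temperature, scaled between no-RNA and DMSO-only wells.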 It counts as biochemical. The following applies: read-out: METTL3_14 RFMS IC50.

[1] abbreviates: 5 nM METTL3/14, 0.2 μM RNA substrate, 0.5 μM SAM, lower limit of the assay IC50=5 nM, Compounds 63-265.

T1 sequence (Q86U44 whole entry): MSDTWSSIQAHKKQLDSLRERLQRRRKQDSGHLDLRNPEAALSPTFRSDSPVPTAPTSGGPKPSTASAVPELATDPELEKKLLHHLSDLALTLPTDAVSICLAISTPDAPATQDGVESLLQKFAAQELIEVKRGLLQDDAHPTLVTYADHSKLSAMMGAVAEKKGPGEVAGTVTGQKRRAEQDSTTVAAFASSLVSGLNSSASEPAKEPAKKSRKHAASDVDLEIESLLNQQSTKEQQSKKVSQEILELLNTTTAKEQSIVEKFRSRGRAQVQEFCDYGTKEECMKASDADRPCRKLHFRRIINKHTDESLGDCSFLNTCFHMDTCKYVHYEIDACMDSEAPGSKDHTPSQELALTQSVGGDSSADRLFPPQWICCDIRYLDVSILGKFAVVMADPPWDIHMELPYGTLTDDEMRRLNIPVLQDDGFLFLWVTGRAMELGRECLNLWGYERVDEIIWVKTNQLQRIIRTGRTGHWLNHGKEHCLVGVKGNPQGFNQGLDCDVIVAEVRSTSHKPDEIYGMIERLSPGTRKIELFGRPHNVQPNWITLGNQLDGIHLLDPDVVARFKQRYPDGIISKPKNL
T1 sequence (Q9HCE5 whole entry partner): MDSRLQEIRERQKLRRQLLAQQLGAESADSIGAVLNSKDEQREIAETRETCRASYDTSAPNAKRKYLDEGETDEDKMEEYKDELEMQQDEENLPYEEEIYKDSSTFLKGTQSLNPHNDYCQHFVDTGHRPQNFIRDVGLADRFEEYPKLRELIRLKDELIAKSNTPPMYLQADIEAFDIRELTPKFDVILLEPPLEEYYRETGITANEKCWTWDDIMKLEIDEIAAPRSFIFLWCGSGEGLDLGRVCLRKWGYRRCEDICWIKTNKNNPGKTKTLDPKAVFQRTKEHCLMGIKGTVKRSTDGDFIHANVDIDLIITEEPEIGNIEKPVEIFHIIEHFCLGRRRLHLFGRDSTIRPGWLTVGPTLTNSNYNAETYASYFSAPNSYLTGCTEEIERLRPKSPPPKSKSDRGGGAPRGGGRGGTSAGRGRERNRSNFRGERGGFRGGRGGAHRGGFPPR

Regarding `O=C(NCc1cn2cc(CNCC3CCCCC3)ccc2n1)c1cc(=O)c2ccc(F)cc2o1` [Compound 180, N-[(6-{[(cyclohexylmethyl)amino]methyl}imidazo [1,2-a]pyridin-2-yl)methyl]-7-fluoro-4-oxo-4H-chromene-2-carboxamide], the negative-log IC50 (pIC50) (commonly −log10 of the IC50, conventionally taken in molar units) under setting [1] was 6.05.
Consider `Cc1ccc2c(=O)cc(C(=O)NCc3cn4cc(CNCC5CCCCC5)ccc4n3)oc2c1` [Compound 181, N-[(6-{[(cyclohexylmethyl)amino]methyl}imidazo[1,2-a]pyridin-2-yl)methyl]-7-methyl-4-oxo-4H-chromene-2-carboxamide], for which the pIC50 under setting [1] was 6.75.
On the same count and under the same terms, for `O=C(NCc1cn2cc(CNCC3CCCCC3)ccc2n1)c1cccc2[nH]ncc12` [Compound 182, N-[(6-{[(cyclohexyl-methyl)amino]methyl}imidazo[1,2-a]pyridin-2-yl)methyl]-1H-indazole-4-carboxamide] the value was 6.75; for `O=C(NCc1cn2cc(CNCC3CCCCC3)ccc2n1)c1cc(=O)c2cccc(Cl)c2o1` [Compound 185, 8-chloro-N-[(6-{[(cyclohexylmethyl)amino]methyl}imidazo[1,2-a]pyridin-2-yl)methyl]-4-oxo-4H-chromene-2-carboxamide], 5.97.
Regarding `O=C(NCc1cn2cc(CNCC3CCCCC3)ccc2n1)c1cc(Br)cc2[nH]ncc12` [Compound 187, 6-bromo-N-[(6-{[(cyclohexylmethyl)amino]methyl}imidazo[1,2-a]pyridin-2-yl)methyl]-1H-indazole-4-carboxamide], the pIC50 under setting [1] was 7.36.
`CC(NCC1CCCCC1)c1ccc2nc(CNC(=O)c3cc(=O)n4ccccc4n3)cn2c1` (stereo not shown) [Compound 189, N-[(6-{1-[(cyclohexyl-methyl)amino]ethyl}imidazo [1,2-a]pyridin-2-yl)methyl]-4-oxo-4H-pyrido[1,2-a]pyrimidine-2-carboxamide]: the pIC50 under setting [1] is 6.88.
Same read-out and setting: the result for `O=C(NCc1cn2cc(CNCC3CCCCC3)ccc2n1)c1cc(Cl)cc2[nH]ncc12` [Compound 190, 6-chloro-N-[(6-{[(cyclohexylmethyl)amino]methyl}imidazo[1,2-a]pyridin-2-yl)methyl]-1H-indazole-4-carboxamide] reads 7.25.
Turning to `O=C(NCc1cn2cc(NCCc3ccccc3)ccc2n1)c1cc(=O)n2ccccc2n1` [Compound 191, 4-oxo-N-({6-[(2-phenylethyl)amino]imidazo[1,2-a]pyridin-2-yl}methyl)-4H-pyrido[1,2-a]pyrimidine-2-carboxamide], the negative logarithm of the IC50 (pIC50) is 5.32.
Take `CC1(C)CCCCN1Cc1ccc2nc(CNC(=O)c3cc(=O)n4ccccc4n3)cn2c1` [Compound 194, N-({6-[(2,2-dimethylpiperidin-1-yl)methyl]imidazo[1,2-a]pyridin-2-yl}methyl)-4-oxo-4H-pyrido[1,2-a]pyrimidine-2-carboxamide]: under setting [1], the pIC50 was 6.52.
For `O=C(NCc1cn2cc(CNc3ccc(F)cn3)ccc2n1)c1cc(=O)n2ccccc2n1` [Compound 196, N-[(6-{[(5-fluoropyridin-2-yl)amino]methyl}imidazo[1,2-a]pyridin-2-yl)methyl]-4-oxo-4H-pyrido[1,2-a] pyrimidine-2-carboxamide], the pIC50 under setting [1] was 6.22.
On the same count and under the same terms, for `O=C(NCc1cn2cc(CNC3(C4CC4)CC3)ccc2n1)c1cc(=O)n2ccccc2n1` [Compound 197, N-({6-[({[1,1′-bi(cyclopropane)]-1-yl}amino)methyl]imidazo [1,2-a]pyridin-2-yl}methyl)-4-oxo-4H-pyrido [1,2-a]pyrimidine-2-carboxamide] the value was 7.07.
Still for that read-out and setting: the result for `O=C(NCc1cn2cc(CNCC3(F)CCCC3)ccc2n1)c1cc(=O)n2ccccc2n1` [Compound 198, N-{[6-({[(1-fluorocyclopentyl)methyl]amino}methyl)imidazo [1,2-a]pyridin-2-yl]methyl}-4-oxo-4H-pyrido [1,2-a]pyrimidine-2-carboxamide] reads 7.36; that for `CC1CN(Cc2ccc3nc(CNC(=O)c4cc(=O)n5ccccc5n4)cn3c2)CC(C)O1` (stereo not shown) [Compound 199, N-({6-[(2,6-dimethylmorpholin-4-yl)methyl]imidazo[1,2-a]pyridin-2-yl}methyl)-4-oxo-4H-pyrido[1,2-a]pyrimidine-2-carboxamide], 5.73; that for `COC(=O)C1CCCN(Cc2ccc3nc(CNC(=O)c4cc(=O)n5ccccc5n4)cn3c2)C1` (stereo not shown) [Compound 200, methyl 1-({2-[({4-oxo-4H-pyrido[1,2-a]pyrimidin-2-yl}formamido)methyl]imidazo [1,2-a]pyridin-6-yl}methyl) piperidine-3-carboxylate], 5.90.
Same read-out and setting: the result for `CC(C)(F)CNCc1ccc2nc(CNC(=O)c3cc(=O)n4ccccc4n3)cn2c1` [Compound 202, N-[(6-{[(2-fluoro-2-methylpropyl)amino]methyl}imidazo[1,2-a]pyridin-2-yl)methyl]-4-oxo-4H-pyrido[1,2-a] pyrimidine-2-carboxamide] reads 7.21; that for `CN(CCC1CC1)Cc1ccc2nc(CNC(=O)c3cc(=O)n4ccccc4n3)cn2c1` [Compound 204, N-[(6-{[(2-cyclopropylethyl) (methyl)amino]methyl}imidazo [1,2-a]pyridin-2-yl)methyl]-4-oxo-4H-pyrido [1,2-a]pyrimidine-2-carboxamide], 7.21.
In the case of `CN(Cc1ccc2nc(CNC(=O)c3cc(=O)n4ccccc4n3)cn2c1)CC(C)(C)C` [Compound 205, N-[(6-{[(2,2-dimethylpropyl) (methyl)amino]methyl}imidazo [1,2-a]pyridin-2-yl)methyl]-4-oxo-4H-pyrido [1,2-a]pyrimidine-2-carboxamide], the pIC50 under setting [1] is 6.71.
Turning to `O=C(NCc1cn2cc(CN3CCCC(F)(F)C3)ccc2n1)c1cc(=O)n2ccccc2n1` [Compound 208, N-({6-[(3,3-difluoropiperidin-1-yl)methyl]imidazo[1,2-a]pyridin-2-yl}methyl)-4-oxo-4H-pyrido [1,2-a]pyrimidine-2-carboxamide], the pIC50 under setting [1] is 5.24.
In the case of `C[C@H](NCc1ccc2nc(CNC(=O)c3cc(=O)n4ccccc4n3)cn2c1)C(C)(C)C` [Compound 215, N-{[6-({[(2S)-3,3-dimethylbutan-2-yl]amino}methyl)imidazo[1,2-a]pyridin-2-yl]methyl}-4-oxo-4H-pyrido [1,2-a]pyrimidine-2-carboxamide], the negative logarithm of the IC50 (pIC50) under setting [1] is 7.27.
On the same count and under the same terms, the result for `O=C(NCc1cn2cc(CN3CCCCC3)ccc2n1)c1cc(=O)c2ccccc2o1` [Compound 219, 4-oxo-N-({6-[(piperidin-1-yl)methyl]imidazo[1,2-a]pyridin-2-yl}methyl)-4H-chromene-2-carboxamide] reads 6.61.
The same measure, in the same setting: the result for `O=C(NCc1cn2cc(CNCc3ccc(Cl)cc3)ccc2n1)c1cc(=O)c2ccccc2o1` [Compound 220, N-{[6-({[(4-chlorophenyl)methyl]amino}methyl)imidazo[1,2-a]pyridin-2-yl]methyl}-4-oxo-4H-chromene-2-carboxamide] reads 6.77.
The same measure, in the same setting: for `O=C(NCc1cn2cc(CNCc3ccccc3)ccc2n1)c1cc(=O)c2ccccc2o1` [Compound 221, N-({6-[(benzylamino)methyl]imidazo[1,2-a]pyridin-2-yl}methyl)-4-oxo-4H-chromene-2-carboxamide] the value was 7.33; for `CC1(CNCc2ccc3nc(CNC(=O)c4cc(=O)c5ccccc5o4)cn3c2)CCCCC1` [Compound 222, N-{[6-({[(1-methylcyclohexyl)methyl]amino}methyl)imidazo [1,2-a]pyridin-2-yl]methyl}-4-oxo-4H-chromene-2-carboxamide], 7.47; for `O=C(NCc1cn2ccc(CNCC3CCCCC3)cc2n1)c1cc(=O)n2ccccc2n1` [Compound 223, N-[(7-{[(cyclohexylmethyl)amino]methyl}imidazo[1,2-a]pyridin-2-yl)methyl]-4-oxo-4H-pyrido[1,2-a]pyrimidine-2-carboxamide], 5.66.
As to `O=C(NCc1cn2ccc(CNCC3CC3)cc2n1)c1cc(=O)n2ccccc2n1` [Compound 224, N-[(7-{[(cyclopropylmethyl)amino]methyl}imidazo[1,2-a]pyridin-2-yl)methyl]-4-oxo-4H-pyrido[1,2-a]pyrimidine-2-carboxamide], under setting [1], the pIC50 is 5.73.
Same read-out and setting: the result for `O=C(NCc1cn2cc(CNC(=O)C3CCCCC3)ccc2n1)c1cc(=O)n2ccccc2n1` [Compound 238, N-({6-[(cyclohexylformamido)methyl]imidazo[1,2-a]pyridin-2-yl}methyl)-4-oxo-4H-pyrido[1,2-a]pyrimidine-2-carboxamide] reads 6.07; that for `O=C(NCc1cn2cc(CNCC3CCCNC3)ccc2n1)c1cc(=O)n2ccccc2n1` (stereo not shown) [Compound 239, 4-oxo-N-{[6-({[(piperidin-3-yl)methyl]amino}methyl)imidazo[1,2-a]pyridin-2-yl]methyl}-4H-pyrido[1,2-a]pyrimidine-2-carboxamide], 6.29; that for `O=C(NCc1cn2cc(CNCC3CCCCN3)ccc2n1)c1cc(=O)n2ccccc2n1` (stereo not shown) [Compound 240, 4-oxo-N-{[6-({[(piperidin-2-yl)methyl]amino}methyl)imidazo[1,2-a]pyridin-2-yl]methyl}-4H-pyrido[1,2-a]pyrimidine-2-carboxamide], 6.59.
Turning to `O=C(NCc1cn2cc(CNC3CNC3)ccc2n1)c1cc(=O)n2ccccc2n1` [Compound 241, N-[(6-{[(azetidin-3-yl)amino]methyl}imidazo[1,2-a]pyridin-2-yl)methyl]-4-oxo-4H-pyrido[1,2-a]pyrimidine-2-carboxamide], the pIC50 under setting [1] is 5.68.
For the compound `O=C(NCc1cn2ccc(CNCCc3ccccc3)cc2n1)c1cc(=O)n2ccccc2n1` [Compound 243, 4-oxo-N-[(7-{[(2-phenylethyl)amino]methyl}imidazo[1,2-a]pyridin-2-yl)methyl]-4H-pyrido[1,2-a]pyrimidine-2-carboxamide], the pIC50 was 5.84.
As for `O=C(NCc1cn2cc(C3(NCC4CCCCC4)CC3)ccc2n1)c1cc(=O)n2ccccc2n1` [Compound 245, N-[(6-{1-[(cyclohexylmethyl)amino]cyclopropyl}imidazo[1,2-a]pyridin-2-yl)methyl]-4-oxo-4H-pyrido[1,2-a]pyrimidine-2-carboxamide], the pIC50 under setting [1] is 6.13.

Values taken from patent publication US12358915B2, “METTL3 inhibitory compounds” (STORM THERAPEUTICS LTD., priority 2019, dated 2025).
